Assay results published in patent US20250250239A1, “SOLID STATE FORMS OF MAVACAMTEN AND PROCESS FOR PREPARATION THEREOF” (Assia Chemical Industries Ltd., priority 2022, published 2025).
Entries after “also recorded” stand apart in the source; their conditions may differ.

Key:
Assay type in all cases: physicochemical
[1] = Stability experiments, all tested stress conditions (summary); conditions: strong grinding, pressure of 1 ton, high humidity (up to 100% RH for 30 days), high temperature (up to 100° C.)
Excerpt: Example 2: Stability Experiments

[2] = Storage stability at different relative humidities (XRPD analysis); conditions: high and low relative humidity, ambient temperature
Procedure: (§1) Sample, after being powdered in a mortar and pestle, is applied directly on a silicon plate holder. The X-ray powder diffraction pattern was measured with Philips X'Pert PRO X-ray powder diffractometer, equipped with Cu irradiation source=1.54184 Å (Ångstrom), X'Celerator (2.022° 2θ) detector. Scanning parameters: angle range: 3-40 deg., step size 0.0167, time per step 37 s, continuous scan. The described peak positions were determined using silicon powder as an internal standard.
(§2) Samples of Mavacamten Form 7 were subjected to conditions of different relative humidities at ambient temperature; TGA weight loss analysis was performed on the samples after 7 days, XRPD analysis was performed after 30 days.

[3] = Stability to compression (pressure of 1 ton, XRPD); conditions: Pressure (1 tons), XRPD after 2 minutes
Procedure: as §1
A sample of Mavacamten Form 7 was subjected to a pressure of 1 ton (Atlas® Autopress hydraulic press, set to 1 ton). XRPD analysis was performed on the sample after 2 minutes.

[4] = Sauna experiments (exposure to solvent vapors, XRPD)
Procedure: as §1
Samples of Mavacamten Form 7 (about 20-30 mg) were exposed for 7 days to vapors of different solvents in a sealed chamber.

[5] = TGA weight loss after storage at different relative humidities (hygroscopicity); conditions: for TGA weight loss after 7 days (up to 190° C.): ambient temperature
Procedure: as §2

[6] = Thermal stability (heating, XRPD); conditions: Heating 100° C., 30 minutes
Procedure: as §1
A sample of Mavacamten Form 7 was subjected to heating up to 100° C. for 30 minutes.

[7] = Grinding experiments (strong grinding and solvent drop grinding, XRPD); conditions: for XRPD analysis results: 2 minutes
Procedure: as §1
Samples of Mavacamten Form 7 were subjected to strong grinding, and to solvent drop grinding in isopropanol, ethanol, ethyl acetate, acetone and water. Grinding was carried out on the samples alone, or in the presence of a solvent. In these experiments, about 20 mg of the sample is placed in a mortar and ground with a pestle for 2 minutes. The solvent, when used, as added to the crystalline material before grinding, in a volume of 10 microliters.

- XRPD analysis results [3]: No polymorphic conversion
- XRPD analysis results ([4]; Sauna (RT/7 days) (ethanol)): No polymorphic conversion
- XRPD analysis results ([4]; Sauna (RT/7 days) (ethyl acetate)): No polymorphic conversion
- XRPD analysis results ([4]; Sauna (RT/7 days) (isopropanol)): No polymorphic conversion
- XRPD analysis results ([4]; Sauna (RT/7 days) (water)): No polymorphic conversion
- Hygroscopicity ([5]; as confirmed by TGA, different relative humidities): non-hygroscopic
- TGA weight loss after 7 days (up to 190° C.) ([5]; relative humidity 20%): 0.7%
- TGA weight loss after 7 days (up to 190° C.) ([5]; relative humidity 40%): 0.6%
- TGA weight loss after 7 days (up to 190° C.) ([5]; relative humidity 60%): 0.8%
- TGA weight loss after 7 days (up to 190° C.) ([5]; relative humidity 80%): 0.5%
- TGA weight loss after 7 days (up to 190° C.) ([5]; relative humidity 100%): 1%
- XRPD analysis results ([7]; Solvent-drop grinding (acetone)): No polymorphic conversion
- XRPD analysis results ([7]; Solvent-drop grinding (ethanol)): No polymorphic conversion
- XRPD analysis results ([7]; Solvent-drop grinding (ethyl-acetate)): No polymorphic conversion
- XRPD analysis results ([7]; Solvent-drop grinding (isopropanol)): No polymorphic conversion
- XRPD analysis results ([7]; Solvent-drop grinding (water)): No polymorphic conversion
- XRPD analysis results ([7]; Strong grinding): No polymorphic conversion
- XRPD analysis after the grinding experiment ([7]; strong grinding and solvent drop grinding in isopropanol, ethanol, ethyl acetate, acetone and water): no change in the starting material
SMILES: CC(C)n1c(=O)cc(N[C@@H](C)c2ccccc2)[nH]c1=O [Mavacamten Form 7, 6-{[(1S)-1-phenylethyl]amino}-3-(propan-2-yl)-1,2,3,4-tetrahydropyrimidine-2,4-dion]
- Stability under tested stress conditions [1]: stable under all tested stress conditions
- Stability at relative humidity conditions [2]: stable at high and low relative humidity conditions
- Result (XRPD analysis) [6]: no change in the starting material; also recorded: No polymorphic conversion
